Reference: patent US20180371384A1, “METHOD FOR PRODUCING ROOTING-SUPPRESSED MALT” (SUNTORY HOLDINGS LIMITED, priority 2015, published 2018)

How the values were obtained:
[1] = system: endoprotease; assay: Measurement of endoprotease level in malts; design: species or system barley
Method: One gram of […] previously cryo-milled with ShakeMaster manufactured by Medical Bio Science is suspended in 2 mL of a buffer suitable for the measurement of activities of various enzymes, extraction is carried out for 60 minutes in iced water, and the extracts are then subjected to ultracentrifugation treatment (1,000 g×20 minutes), to provide the supernatant as an enzyme solution. Azo-stained casein is used as a substrate, enzyme extracts from […] thereto, and the mixture is reacted at 40° C. for 30 minutes. The reaction is stopped with a TCA solution, the solution is allowed to stand for 5 minutes, the mixture is then subjected to centrifugation to precipitate an undegraded substrate, and the supernatant is subjected to colorimetry at 366 mn (n=5). Here, an enzyme activity is defined such that an enzyme concentration of an enzyme liquid which is added to an enzyme reaction liquid to increase the absorbance by 1.0 is 1 U/mL. […] A pH of the solution is then adjusted to 8.5 with a diluted sulfuric acid, and a volume is tilled up to 100 mL.

[2] = system: barley (Sukai Golden); assay: Amount of rooting, yield and length of acrospires (Test Example 3); assay type: in vivo; settings: for Amount of Rooting Based on 100 g of Barley: germination 5 days at 20° C.
From the text: Here, the rooting amount used herein means total weight of a root thrusting out of the surface of each grain in malts which are malted from 100 g of raw material barley.
Crops of Sukai Golden harvested in the year 2013 (99% of germination ratio) were used as domestic (Japan) two-row malting barley cultivar. and steeping conditions were the same as those in Test Example 1. A standard in which steeping of barley was earned out in pure water (pH 7.0) was defined as “normal steeping bailey (Comparative Example 2),” and a standard in which steeping of barley was earned out in an aqueous solution having a pH listed in Table 3 with phosphoric acid was defined as “acidic steeping barley (Example 2),” and three batches of malts each of which was obtained by going through the steps of steeping, germination and kilning were prepared. For each of batches of the normal malts and the acidic steeping barley obtained, the weight of rooting was obtained, and an average length of acrospires and an yield were obtained in the same manner as Test Example 1 to calculate an average thereof. In addition, each of the contents of an acrid component and β-glucan was measured as follows, and the contents of enzymes were measured in the same manner as Test Example 2. […] In addition, the germination was carried out for 5 days while keeping a temperature at 20° C. In addition, an yield was calculated as X/100 (%) from X g of a weight of roots-removed malts obtained from 100 g of barley.

[3] = system: β-amylase; assay: Measurement of β-amylase level in malts; design: species or system barley
Method: One gram of […] previously cryo-milled with ShakeMaster manufactured by Medical Bio Science is suspended in 2 mL of a buffer suitable for the measurement of activities of various enzymes, extraction is carried out for 60 minutes in iced water, and the extracts are then subjected to ultracentrifugation treatment (1,000 g×20 minutes), to provide the supernatant as an enzyme solution. Enzyme extracts from […] to Betamyl (p-nitrophenyl maltotriose; […]

[4] = system: α-amylase; assay: Measurement of α-amylase level in malts; design: species or system barley
Method: One gram of malts which are previously cryo-milled with ShakeMaster manufactured by Medical Bio Science is suspended in 2 mL of a buffer suitable for the measurement of activities of various enzymes, extraction is carried out for 60 minutes in iced water, and the extracts are then subjected to ultracentrifugation treatment (1,000 g×20 minutes), to provide the supernatant as an enzyme solution.
A crop a amylase kit from BIOCON is used. A blocked p-nitrophenyl maltoheptaoside (BPNPG7) is used as a substrate, enzyme extracts from malts are added thereto, and the mixture is reacted at 40° C. for 20 minutes. The reaction is stopped with Trizma base, and p-nitrophenyl maltosaccharide produced is degraded with glucoamylase, α-glucosidase. P-nitrophenol produced is subjected to phenolate color development, and the absorbance is measured at 410 nm (n=5).

[5] = system: acrid component (hordatine glycoside); assay: Measurement of acrid components in malts (LCMS); design: species or system barley
From the text: In addition, the content of the acrid component in the acidic steeping malts obtained is, for example, lowered in a case of a pH of from 1.8 to 2.0 of the acidic steeping water, and the content is preferably 90% by weight or less, more preferably 80% by weight or less, even more preferably 75% by weight or less, even more preferably 70% by weight or less, even more preferably 60% by weight or less, and even more preferably 55% by weight or less, when defining the content of the acrid component in normal malts as 100% by weight. Here, the acrid component as used herein refers to a hordatine glycoside, and the content can be measured in accordance with a method set forth in the following Examples.
The amount 5.0 g of malts which are previously cryo-milled with ShakeMaster manufactured by Medical Bio Science are suspended in 40 mL of hot water at 65° C., and extraction is carried out at 65° C. for 1 hour. Thereafter, the extracts are subjected to centrifugation at 5,000 rpm for 20 minutes, and 10 mL of the supernatant is applied to PLS-2 solid phase column of GL Science (activated with methanol or the like), the column is washed with water, and thereafter fractions eluted with 20% ethanol are collected. The eluents are concentrated with SpeedVac, a concentrate is then freeze-dried, the freeze-dried product is dissolved in water, and the solution is subjected to LCMS under the following conditions, to obtain area of peak thereof.
Apparatus; LCMS-2020 manufactured by Shimadzu Corporation
Column: Polar column (Develosil-C30-UG-5. φ2×150 mm)
Mobile phase: Gradient of water containing 0.1% formic acid/acetocetonitrile[sic] • 0 to 62.5 minutes (2→10% acetonitrile) • 62.5 to 72.5 minutes (10% acetonitrile)
Column temperature: 40° C.

`O=P(O)(O)O` [Phosphoric Acid, phosphoric acid] was tested, and the “Endoprotease (Based on Normal Steeping Barley, %)” value ([1]; Initial pH 1.5, 223 mM) was 16%, the “Endoprotease (Based on Normal Steeping Barley, %)” value ([1]; Initial pH 1.6, 176 mM) was 20% and the “Endoprotease (Based on Normal Steeping Barley, %)” value ([1]; Initial pH 1.8, 82 mM) was 45%. The “Endoprotease (Based on Normal Steeping Barley, %)” value ([1]; Initial pH 2.0, 29 mM) was 65%, the “Endoprotease (Based on Normal Steeping Barley, %)” value ([1]; Initial pH 2.2, 18 mM) was 68% and the “Endoprotease (Based on Normal Steeping Barley, %)” value ([1]; Initial pH 2.4, 7 mM) was 35%. For the same compound, the “Length of Acrospires” value ([2]; Initial pH 1.5, 223 mM) was 0.38, the “Amount of Rooting Based on 100 g of Barley” value (shortened to “Amount of Rooting Based”) ([2]; Initial pH 1.5, 223 mM) was 0.03 g and the “Length of Acrospires” value ([2]; Initial pH 1.6, 176 mM) was 0.38. The “Amount of Rooting Based” value ([2]; Initial pH 1.6, 176 mM) was 0.03 g, the “Length of Acrospires” value ([2]; Initial pH 1.8, 82 mM) was 0.38 and the “Amount of Rooting Based” value ([2]; Initial pH 1.8, 82 mM) was 0.05 g. For the same compound, the “Length of Acrospires” value ([2]; Initial pH 2.0, 29 mM) was 0.62, the “Amount of Rooting Based” value ([2]; Initial pH 2.0, 29 mM) was 0.30 g and the “Length of Acrospires” value ([2]; Initial pH 2.2, 18 mM) was 0.63. For the same compound, the “Amount of Rooting Based” value ([2]; Initial pH 2.2, 18 mM) was 1.51 g, the “Length of Acrospires” value ([2]; Initial pH 2.4, 7 mM) was 0.63 and the “Amount of Rooting Based” value ([2]; Initial pH 2.4, 7 mM) was 2.90 g. For the same compound, the “β-Amylase (Based on Normal Steeping Barley, %)” value ([3]; Initial pH 1.5, 223 mM) was 187%, the “β-Amylase (Based on Normal Steeping Barley, %)” value ([3]; Initial pH 1.6, 176 mM) was 128% and the “β-Amylase (Based on Normal Steeping Barley, %)” value ([3]; Initial pH 1.8, 82 mM) was 557%. For the same compound, the “β-Amylase (Based on Normal Steeping Barley, %)” value ([3]; Initial pH 2.0, 29 mM) was 400%, the “β-Amylase (Based on Normal Steeping Barley, %)” value ([3]; Initial pH 2.2, 18 mM) was 370% and the “β-Amylase (Based on Normal Steeping Barley, %)” value ([3]; Initial pH 2.4, 7 mM) was 221%. The “α-Amylase (Based on Normal Steeping Barley, %)” value ([4]; Initial pH 1.5, 223 mM) was 21%, the “α-Amylase (Based on Normal Steeping Barley, %)” value ([4]; Initial pH 1.6, 176 mM) was 25% and the “α-Amylase (Based on Normal Steeping Barley, %)” value ([4]; Initial pH 1.8, 82 mM) was 39%. For the same compound, the “α-Amylase (Based on Normal Steeping Barley, %)” value ([4]; Initial pH 2.0, 29 mM) was 90%, the “α-Amylase (Based on Normal Steeping Barley, %)” value ([4]; Initial pH 2.2, 18 mM) was 90% and the “α-Amylase (Based on Normal Steeping Barley, %)” value ([4]; Initial pH 2.4, 7 mM) was 91%. The “Acrid Component (Based on Normal Steeping Barley, % by weight)” value ([5]; Initial pH 1.5, 223 mM) was 259 % by weight, the “Acrid Component (Based on Normal Steeping Barley, % by weight)” value ([5]; Initial pH 1.6, 176 mM) was 104 % by weight and the “Acrid Component (Based on Normal Steeping Barley, % by weight)” value ([5]; Initial pH 1.8, 82 mM) was 53 % by weight. For the same compound, the “Acrid Component (Based on Normal Steeping Barley, % by weight)” value ([5]; Initial pH 2.0, 29 mM) was 80 % by weight, the “Acrid Component (Based on Normal Steeping Barley, % by weight)” value ([5]; Initial pH 2.2, 18 mM) was 116 % by weight and the “Acrid Component (Based on Normal Steeping Barley, % by weight)” value ([5]; Initial pH 2.4, 7 mM) was 120 % by weight.
